Measured values from patent US11179383B2 (Gilead Sciences, Inc., priority 2018, dated 2021).

Molecular target: T1, α4β7 integrin (Homo sapiens, UniProt P13612+P26010)
T1 construct: monitoring the capture of α4β7 integrin expressing cells on a recombinant MadCAM-1 extracellular domain-coated plate; endogenous in cells; host or cells: RPMI8866 cells
T1 sequence (P13612 34-1032): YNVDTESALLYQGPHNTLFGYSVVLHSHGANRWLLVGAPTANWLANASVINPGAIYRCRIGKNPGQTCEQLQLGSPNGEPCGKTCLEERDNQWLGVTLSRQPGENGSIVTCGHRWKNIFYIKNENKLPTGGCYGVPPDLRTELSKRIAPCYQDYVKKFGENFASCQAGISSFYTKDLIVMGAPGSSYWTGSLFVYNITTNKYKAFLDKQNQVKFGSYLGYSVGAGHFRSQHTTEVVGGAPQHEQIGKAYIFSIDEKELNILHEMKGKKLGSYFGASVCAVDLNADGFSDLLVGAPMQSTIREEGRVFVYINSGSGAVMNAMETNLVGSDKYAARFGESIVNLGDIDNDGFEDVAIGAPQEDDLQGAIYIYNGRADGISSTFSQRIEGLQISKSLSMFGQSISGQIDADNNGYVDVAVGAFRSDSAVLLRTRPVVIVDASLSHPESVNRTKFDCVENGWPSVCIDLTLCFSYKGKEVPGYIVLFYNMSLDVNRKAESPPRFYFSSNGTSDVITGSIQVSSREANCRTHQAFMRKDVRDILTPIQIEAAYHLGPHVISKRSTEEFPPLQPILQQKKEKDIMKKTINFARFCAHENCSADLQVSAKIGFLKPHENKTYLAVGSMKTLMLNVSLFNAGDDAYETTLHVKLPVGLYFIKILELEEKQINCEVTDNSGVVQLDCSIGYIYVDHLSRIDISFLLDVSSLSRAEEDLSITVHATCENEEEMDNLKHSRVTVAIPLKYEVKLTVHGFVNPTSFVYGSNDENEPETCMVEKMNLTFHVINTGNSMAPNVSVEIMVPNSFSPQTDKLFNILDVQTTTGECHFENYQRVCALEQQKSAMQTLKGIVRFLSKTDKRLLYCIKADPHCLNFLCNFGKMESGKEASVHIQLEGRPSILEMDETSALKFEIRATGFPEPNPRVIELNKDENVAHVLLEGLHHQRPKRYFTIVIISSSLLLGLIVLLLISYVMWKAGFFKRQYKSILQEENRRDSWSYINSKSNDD
T1 sequence (P26010 20-798): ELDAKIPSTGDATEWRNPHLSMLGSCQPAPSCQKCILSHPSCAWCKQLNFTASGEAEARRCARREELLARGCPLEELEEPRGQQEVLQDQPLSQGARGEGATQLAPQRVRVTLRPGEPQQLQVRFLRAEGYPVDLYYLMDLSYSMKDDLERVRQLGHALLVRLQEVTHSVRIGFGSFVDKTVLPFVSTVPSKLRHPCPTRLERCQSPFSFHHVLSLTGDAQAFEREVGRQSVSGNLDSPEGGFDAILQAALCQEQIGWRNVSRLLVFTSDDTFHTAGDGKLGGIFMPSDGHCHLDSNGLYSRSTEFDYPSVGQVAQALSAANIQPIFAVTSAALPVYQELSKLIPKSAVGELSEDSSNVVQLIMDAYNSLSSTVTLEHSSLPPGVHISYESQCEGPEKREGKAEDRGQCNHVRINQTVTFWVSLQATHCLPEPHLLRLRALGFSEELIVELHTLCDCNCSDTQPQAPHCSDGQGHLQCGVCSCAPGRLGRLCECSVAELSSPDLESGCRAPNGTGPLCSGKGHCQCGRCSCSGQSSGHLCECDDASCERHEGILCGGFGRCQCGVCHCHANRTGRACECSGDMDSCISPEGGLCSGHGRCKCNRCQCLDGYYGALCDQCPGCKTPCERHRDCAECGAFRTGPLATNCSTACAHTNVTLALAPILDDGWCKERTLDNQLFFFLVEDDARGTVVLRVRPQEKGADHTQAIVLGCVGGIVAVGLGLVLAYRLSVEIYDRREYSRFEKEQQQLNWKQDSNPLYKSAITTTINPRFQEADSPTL
Assay: α4β7 Integrin Cell Capture Assay
Format: cell-based
Conditions: capture of α4β7 integrin expressing RPMI8866 cells on recombinant MadCAM-1 extracellular domain-coated plate; DMEM+0.5% FBS+0.5 mM MnCl2; read-out: EC50 α4β7
Procedure, shortened: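 RPMI8866 cells in DMEM + 0.5% FBS + 0.5 mM MnCl2 preincubated with compound 1 h at 37 °C, then allowed to bind 30 min at 37 °C to plates coated with MAdCAM-1 extracellular domain (1.0 μg/mL). Cells fixed with glutaraldehyde, Hoechst-stained, imaged and bound cells counted; EC50 from cell count versus concentration.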

| SMILES | EC50 [nM] |
| --- | --- |
| CCOCc1cc(OC)c(-c2ccc(C[C@H](NC(=O)c3c(F)cc(NS(=O)(=O)c4ccc(-c5ccnc(F)c5)cc4)cc3F)C(=O)O)c3nc(C)oc23)c(OC)c1 [Example 151, (S)-2-(2,6-difluoro-4-((4-(2-fluoropyridin-4-yl)phenyl)sulfonamido)benzamido)-3-(7-(4-(ethoxymethyl)-2,6-dimethoxyphenyl)-2-methylbenzo[d]oxazol-4-yl) propanoic acid] | 5.8 |
| CCOCc1cc(OC)c(-c2ccc(C[C@H](NC(=O)c3c(F)cccc3F)C(=O)O)c3nc(C)oc23)c(OC)c1 [Example 152, (S)-2-(2,6-difluorobenzamido)-3-(7-(4-(ethoxymethyl)-2,6-dimethoxyphenyl)-2-methylbenzo[d]oxazol-4-yl)propanoic acid] | 57.8 |
| CCOCc1cc(OC)c(-c2ccc(C[C@H](NC(=O)c3c(Cl)cccc3Cl)C(=O)O)c3nc(C)oc23)c(OC)c1 [Example 153, (S)-2-(2,6-dichlorobenzamido)-3-(7-(4-(ethoxymethyl)-2,6-dimethoxyphenyl)-2-methylbenzo[d]oxazol-4-yl)propanoic acid] | 28.4 |
| COc1cccc(OC)c1-c1ccc(C[C@H](NC(=O)c2c(F)cc(NS(=O)(=O)c3ccc(-c4ccnc(F)c4)cc3)cc2F)C(=O)O)c2nccnc12 [Example 154, (S)-2-(2,6-difluoro-4-((4-(2-fluoropyridin-4-yl)phenyl)sulfonamido)benzamido)-3-(8-(2,6-dimethoxyphenyl)quinoxalin-5-yl)propanoic acid] | 2.6 |
| CCOCc1cc(OC)c(-c2ccc(C[C@H](NC(=O)c3c(F)cc(NS(=O)(=O)c4ccc(-c5ccnc(F)c5)cc4)cc3F)C(=O)O)c3nccnc23)c(OC)c1 [Example 155, (S)-2-(2,6-difluoro-4-((4-(2-fluoropyridin-4-yl)phenyl)sulfonamido)benzamido)-3-(8-(4-(ethoxymethyl)-2,6-dimethoxyphenyl)quinoxalin-5-yl)propanoic acid] | 1.6 |
| O=C(N[C@@H](Cc1ccc(-c2c(Cl)cc(F)cc2Cl)c2nccnc12)C(=O)O)c1c(F)cccc1F [Example 156, (S)-3-(8-(2,6-dichloro-4-fluorophenyl)quinoxalin-5-yl)-2-(2,6-difluorobenzamido)propanoic acid] | 135 |
| O=C(N[C@@H](Cc1ccc(-c2c(Cl)cc(F)cc2Cl)c2nccnc12)C(=O)O)c1c(Cl)cccc1Cl [Example 157, (S)-3-(8-(2,6-dichloro-4-fluorophenyl)quinoxalin-5-yl)-2-(2,6-dichlorobenzamido)propanoic acid] | 161 |
| CC[C@@H](Nc1cc(F)c(C(=O)N[C@@H](Cc2ccc(-c3c(C)c4cc(F)ccc4n(C)c3=O)c3nccnc23)C(=O)O)c(F)c1)C(F)(F)F [Example 158, (S)-2-(2,6-difluoro-4-(((R)-1,1,1-trifluorobutan-2-yl)amino)benzamido)-3-(8-(6-fluoro-1,4-dimethyl-2-oxo-1,2-dihydroquinolin-3-yl)quinoxalin-5-yl)propanoic acid] | 0.4 |
| Cc1c(-c2ccc(C[C@H](NC(=O)c3c(F)cccc3F)C(=O)O)c3nccnc23)c(=O)n(C)c2ccc(F)cc12 [Example 159, (S)-2-(2,6-difluorobenzamido)-3-(8-(6-fluoro-1,4-dimethyl-2-oxo-1,2-dihydroquinolin-3-yl)quinoxalin-5-yl)propanoic acid] | 1.9 |
| CCOCc1cc(OC)c(-c2ccc(CC(NC(=O)c3c(F)cc(NS(=O)(=O)c4ccc(-c5ccnc(F)c5)cc4)cc3F)C(=O)O)c3ccncc23)c(OC)c1 (stereo not drawn) [Example 160, 2-(2,6-difluoro-4-((4-(2-fluoropyridin-4-yl)phenyl)sulfonamido)benzamido)-3-(8-(4-(ethoxymethyl)-2,6-dimethoxyphenyl)isoquinolin-5-yl)propanoic acid] | 0.6 |
| COc1cccc(OC)c1-c1ccc(CC(NC(=O)c2c(F)cc(NS(=O)(=O)c3ccc(-n4cncn4)cc3)cc2F)C(=O)O)c2cnccc12 (stereo not drawn) [Example 163, 2-(4-((4-(1H-1,2,4-triazol-1-yl)phenyl)sulfonamido)-2,6-difluorobenzamido)-3-(5-(2,6-dimethoxyphenyl)isoquinolin-8-yl)propanoic acid] | 0.9 |
| CCOCc1cc(OC)c(-c2cnc(C[C@H](NC(=O)c3c(F)cc(NS(=O)(=O)c4ccc(-c5ccnc(F)c5)cc4)cc3F)C(=O)O)c3cccnc23)c(OC)c1 [Example 166, (S)-2-(2,6-difluoro-4-((4-(2-fluoropyridin-4-yl)phenyl)sulfonamido)benzamido)-3-(8-(4-(ethoxymethyl)-2,6-dimethoxyphenyl)-1,6-naphthyridin-5-yl)propanoic acid] | 24.4 |
| CCOCc1cc(OC)c(-c2cnc(C[C@H](NC(=O)c3c(F)cccc3F)C(=O)O)c3cccnc23)c(OC)c1 [Example 167, (S)-2-(2,6-difluorobenzamido)-3-(8-(4-(ethoxymethyl)-2,6-dimethoxyphenyl)-1,6-naphthyridin-5-yl)propanoic acid] | 836 |
| CCOCc1cc(OC)c(-c2ncc(C[C@H](NC(=O)c3c(F)cc(N[C@H](CC)C(F)(F)F)cc3F)C(=O)O)c3ccccc23)c(OC)c1 [Example 168, (S)-2-(2,6-difluoro-4-(((R)-1,1,1-trifluorobutan-2-yl)amino)benzamido)-3-(1-(4-(ethoxymethyl)-2,6-dimethoxyphenyl)isoquinolin-4-yl)propanoic acid] | 26.6 |
| O=C(N[C@@H](Cc1ccc(-c2c(Cl)cc(F)cc2Cl)c2c1C=CCO2)C(=O)O)c1c(Cl)cccc1Cl [Example 169, (S)-3-(8-(2,6-dichloro-4-fluorophenyl)-2H-chromen-5-yl)-2-(2,6-dichlorobenzamido)propanoic acid] | 142 |
| CC1(C)C=Cc2c(C[C@H](NC(=O)c3c(Cl)cccc3Cl)C(=O)O)ccc(-c3c(Cl)cc(F)cc3Cl)c2O1 [Example 170, (S)-3-(8-(2,6-dichloro-4-fluorophenyl)-2,2-dimethyl-2H-chromen-5-yl)-2-(2,6-dichlorobenzamido)propanoic acid] | 206 |
| Cc1nc(-c2ccc(C[C@H](NC(=O)c3c(F)cc(N4CCOC[C@@H]4C(F)(F)F)cc3F)C(=O)O)c3ccccc23)c(=O)n(C)c1C [Example 177] | 0.22 |
| Cc1cc(N2CCOC[C@@H]2C(F)(F)F)cc(F)c1C(=O)N[C@@H](Cc1ccc(-n2c(=O)c3ccncc3n(C)c2=O)n2nccc12)C(=O)O [Example 180] | 0.09 |
